Test results published in patent publication US5594135A, “Tricyclic DNA gyrase inhibitors” (Hoffmann-La Roche Inc., priority 1994, dated 1997).
≈ marks a conversion by molar mass, not a printed value.

How the values were obtained:
S. pyogenes 15 = assay: Antibacterial activity in vitro (agar dilution); type: cell-based; settings: Streptococcus pyogenes, agar dilution (MuellerHinton agar), inoculum 10^4 CFU/spot, read-out: minimum inhibitory concentration (MIC)
S. aureus Smith = assay: Antibacterial activity in vitro (agar dilution); type: cell-based; settings: Staphylococcus aureus, agar dilution (MuellerHinton agar), inoculum 10^4 CFU/spot, read-out: minimum inhibitory concentration (MIC)
DNA gyrase = target: T1, DNA gyrase (Escherichia coli, UniProt P0AES4+P0AES6); assay: Inhibition of DNA gyrase activity (DNA gyrase supercoiling assay, relaxed pUC18 plasmid as substrate); type: biochemical, E. coli H560
T1 construct: supercoiling of relaxed pUC18
Method: A. Inhibition of DNA gyrase activity
The inhibition of DNA gyrase activity was measured using a DNA gyrase supercoiling assay according to R. Otter & N. Cozzarelli: Methods in Enzymology, Vol. 100, pp 171-180 (1983). DNA gyrase was isolated from E. coli H560, and relaxed pUC18 plasmid was used as substrate. The activities as regards inhibition of DNA gyrase activity, expressed as maximum non-effective concentration of the test compound (MNC in μg/ml) are compiled in the following Table 1: […]

P. aeruginosa 799/61 = assay: Antibacterial activity in vitro (agar dilution); type: cell-based; settings: Pseudomonas aeruginosa, agar dilution (MuellerHinton agar), inoculum 10^4 CFU/spot, read-out: minimum inhibitory concentration (MIC)
S. epidermidis 16-2 = assay: Antibacterial activity in vitro (agar dilution); type: cell-based; settings: Staphylococcus epidermidis, 162, agar dilution (MuellerHinton agar), inoculum 10^4 CFU/spot, read-out: minimum inhibitory concentration (MIC)
S. aureus 25923 = assay: Antibacterial activity in vitro (agar dilution); type: cell-based; settings: Staphylococcus aureus, agar dilution (MuellerHinton agar), inoculum 10^4 CFU/spot, read-out: minimum inhibitory concentration (MIC)
S. faecalis 6 = assay: Antibacterial activity in vitro (agar dilution); type: cell-based; settings: Enterococcus faecalis, agar dilution (MuellerHinton agar), inoculum 10^4 CFU/spot, read-out: minimum inhibitory concentration (MIC)
E. coli B = assay: Antibacterial activity in vitro (agar dilution); type: cell-based; settings: Escherichia coli, agar dilution (MuellerHinton agar), inoculum 10^4 CFU/spot, read-out: minimum inhibitory concentration (MIC)

T1 sequence (P0AES4 whole entry, one chain of several): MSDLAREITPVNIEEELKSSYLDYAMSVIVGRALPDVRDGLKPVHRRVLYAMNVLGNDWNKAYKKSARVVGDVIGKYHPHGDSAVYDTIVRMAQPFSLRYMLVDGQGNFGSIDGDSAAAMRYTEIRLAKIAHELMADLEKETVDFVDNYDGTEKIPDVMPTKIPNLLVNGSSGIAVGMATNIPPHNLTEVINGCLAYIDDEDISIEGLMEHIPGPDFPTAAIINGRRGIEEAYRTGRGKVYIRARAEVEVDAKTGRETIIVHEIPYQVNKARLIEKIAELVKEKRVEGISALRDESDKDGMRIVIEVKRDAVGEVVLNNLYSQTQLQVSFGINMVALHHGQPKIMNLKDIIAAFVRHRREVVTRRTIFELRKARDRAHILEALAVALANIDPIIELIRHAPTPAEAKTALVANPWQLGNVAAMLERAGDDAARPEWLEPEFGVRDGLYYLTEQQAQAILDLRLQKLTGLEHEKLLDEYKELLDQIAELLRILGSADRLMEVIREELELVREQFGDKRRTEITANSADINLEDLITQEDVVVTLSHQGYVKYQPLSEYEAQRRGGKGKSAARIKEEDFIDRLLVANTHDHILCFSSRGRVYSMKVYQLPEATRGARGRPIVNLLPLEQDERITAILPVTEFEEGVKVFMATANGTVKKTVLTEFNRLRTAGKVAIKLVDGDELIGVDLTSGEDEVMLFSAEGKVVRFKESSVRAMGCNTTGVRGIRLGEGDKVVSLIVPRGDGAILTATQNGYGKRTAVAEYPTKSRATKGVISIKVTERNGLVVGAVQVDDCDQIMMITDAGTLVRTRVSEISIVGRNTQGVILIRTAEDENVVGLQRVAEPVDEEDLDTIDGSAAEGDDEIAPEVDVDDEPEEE

COc1cc(O)c2c(c1C)C(=O)OCCCCC(=S)N[C@H](C(N)=O)CSC2 [Example 69, (R)-16-hydroxy-14-methoxy-13-methyl-12-oxo-6-thioxo-1,3,4,5,6,7,8,9,10,12-decahydro-11,2,5-benzoxathiaazacyclotetradecine-4-carboxylic acid amide]
MIC (S. pyogenes 15): 2 µg/mL (≈ 4.85 µM)
MIC (S. aureus Smith): 2 µg/mL (≈ 4.85 µM)
maximum non-effective concentration of the test compound (MNC) (DNA gyrase): 0.04 µg/mL
MIC (P. aeruginosa 799/61): > 64 µg/mL
MIC (S. epidermidis 16-2): 0.25 µg/mL (≈ 0.606 µM)
MIC (S. aureus 25923): 4 µg/mL (≈ 9.7 µM)
MIC (S. faecalis 6): 2 µg/mL (≈ 4.85 µM)
MIC (E. coli B): > 64 µg/mL

COC(=O)c1c(Br)c(OC)cc(O)c1CSC[C@H](NC(C)=S)c1nc(C)no1 [Example 71, (R)-2-bromo-5-hydroxy-3-methoxy-6-[2-(3-methyl-1,2,4-oxadiazol-5-yl)-2-thioacetylamino-ethylsulfanylmethyl]-benzoic acid methyl ester]
MIC (S. pyogenes 15): 4 µg/mL (≈ 8.16 µM)
MIC (S. aureus Smith): 1 µg/mL (≈ 2.04 µM)
maximum non-effective concentration of the test compound (MNC) (DNA gyrase): 0.5 µg/mL
MIC (P. aeruginosa 799/61): 64 µg/mL (≈ 131 µM)
MIC (S. epidermidis 16-2): 0.5 µg/mL (≈ 1.02 µM)
MIC (S. aureus 25923): 2 µg/mL (≈ 4.08 µM)
MIC (S. faecalis 6): 4 µg/mL (≈ 8.16 µM)
MIC (E. coli B): > 64 µg/mL

COC(=O)c1c(Cl)c(OC)cc(O)c1CSC[C@H](NC(C)=S)c1nc(C)no1 [Example 92, (R)-2-chloro-5-hydroxy-3-methoxy-6-[2-(3-methyl-1,2,4-oxadiazol-5-yl)-2-thioacetylamino-ethylsulfanylmethyl]-benzoic acid methyl ester]
MIC (S. pyogenes 15): 8 µg/mL (≈ 17.9 µM)
MIC (S. aureus Smith): 2 µg/mL (≈ 4.48 µM)
maximum non-effective concentration of the test compound (MNC) (DNA gyrase): 0.04 µg/mL
MIC (P. aeruginosa 799/61): 64 µg/mL (≈ 144 µM)
MIC (S. epidermidis 16-2): 1 µg/mL (≈ 2.24 µM)
MIC (S. aureus 25923): 4 µg/mL (≈ 8.97 µM)
MIC (S. faecalis 6): 8 µg/mL (≈ 17.9 µM)
MIC (E. coli B): > 64 µg/mL

COc1cc(O)c(CSC[C@H](NC(C)=O)c2nc(C)no2)c(C#N)c1C [Example 97, (R)-N-[2-(2-cyano-6-hydroxy-4-methoxy-3-methyl-benzylsulfanyl]-1-(3-methyl-1,2,4-oxadiazol-5-yl)-ethyl]-acetamide]
MIC (S. pyogenes 15): 16 µg/mL (≈ 42.5 µM)
MIC (S. aureus Smith): 8 µg/mL (≈ 21.3 µM)
maximum non-effective concentration of the test compound (MNC) (DNA gyrase): 0.4 µg/mL
MIC (P. aeruginosa 799/61): 64 µg/mL (≈ 170 µM)
MIC (S. epidermidis 16-2): 1 µg/mL (≈ 2.66 µM)
MIC (S. aureus 25923): 16 µg/mL (≈ 42.5 µM)
MIC (S. faecalis 6): 16 µg/mL (≈ 42.5 µM)
MIC (E. coli B): 64 µg/mL (≈ 170 µM)
